In patent US7803816B2, “MCH receptor antagonists” (Hoffmann-La Roche Inc., priority 2005, dated 2010) one finds IC50 data, which are given here for twelve compounds.

Molecules are shown by their SMILES. Read-outs that look alike come from different tables or passages of the source.

This assay addresses T1, recombinant human MCHR1-receptors (Homo sapiens, UniProt Q99705).
T1 construct: expressed in transfected cells
In words: MCHR filter binding assay (competition binding). As to conditions: membranes from CHO-K1 cells expressing human MCHR1, 0.2 nM [Phe13,[125I]Tyr19]-MCH. The method, boiled down:
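Membranes from CHO-K1 cells stably expressing human MCHR1 (2.8 μg) preincubated 15 min with competitor, then 1 h at rt with 0.2 nM [Phe13,[125I]Tyr19]-MCH in HEPES/CaCl2/BSA/phenanthroline/Triton buffer. Bound radioactivity counted after rapid filtration over PVP/BSA-treated GF/B filters.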

Where [1] appears, read: read-out: IC50 (nM), in vitro activity (binding assay).

T1 sequence (Q99705 whole entry): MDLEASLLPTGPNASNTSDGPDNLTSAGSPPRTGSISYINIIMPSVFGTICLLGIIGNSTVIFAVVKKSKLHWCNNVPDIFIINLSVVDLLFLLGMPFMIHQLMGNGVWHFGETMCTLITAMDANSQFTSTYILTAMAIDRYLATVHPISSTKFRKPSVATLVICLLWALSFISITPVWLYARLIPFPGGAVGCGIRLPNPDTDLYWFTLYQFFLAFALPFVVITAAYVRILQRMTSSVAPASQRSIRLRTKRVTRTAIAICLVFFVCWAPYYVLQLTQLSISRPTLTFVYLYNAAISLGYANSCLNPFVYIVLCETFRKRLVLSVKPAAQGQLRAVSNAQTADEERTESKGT

On to `CO[C@H]1CN(CC2Cc3cc(F)c(F)cc3C2)CC[C@@H]1n1c(C)nc2cc(C)ccc21` [Example 101, 1-[(3S,4S)-1-(5,6-Difluoro-indan-2-ylmethyl)-3-methoxy-piperidin-4-yl]-2,5-dimethyl-1H-benzoimidazole], for which the IC50 under setting [1] lay in the range of 20 to 200 nM. Turning to `Cc1ccc2c(c1)ncn2C1CCN(CC2Cc3cccc(Cl)c3C2)CC1` (stereo not shown) [Example 102, 1-[1-(4-Chloro-indan-2-ylmethyl)-piperidin-4-yl]-5-methyl-1H-benzoimidazole; compound with trifluoroacetic acid], under setting [1], the IC50 is 200 to 5000 nM. On to `Cc1ccc2c(c1)nc(C(C)(C)O)n2C1CCN(CC2Cc3cccc(Cl)c3C2)CC1` (stereo not shown) [Example 103, 2-{1-[1-(4-Chloro-indan-2-ylmethyl)-piperidin-4-yl]-5-methyl-1H-benzoimidazol-2-yl}-propan-2-ol; compound with trifluoroacetic acid], for which, under setting [1], the IC50 lay in the range of 20 to 200 nM. As for `CO[C@@H]1CN(CC2Cc3ccc(C(C)C)cc3C2)CC[C@H]1n1c(C)nc2cc(C)ccc21` (stereo partly drawn) [Example 104, 1-[(3R,4R)-1-(5-Isopropyl-indan-2-ylmethyl)-3-methoxy-piperidin-4-yl]-2,5-dimethyl-1H-benzoimidazole], the IC50 under setting [1] lay in the range of 200 to 5000 nM. With `Cc1ccc2c(c1)CC(CN1CCC(n3c(C(C)(C)F)nc4cc(C)ccc43)CC1)C2` (stereo not shown) [Example 105, 2-(1-Fluoro-1-methyl-ethyl)-5-methyl-1-[1-(5-methyl-indan-2-ylmethyl)-piperidin-4-yl]-1H-benzoimidazole], the IC50 under setting [1] is 200 to 5000 nM. For the compound `Cc1cc2ncn(C3CCN(CC4Cc5ccc(F)cc5C4)CC3)c2cc1F` (stereo not shown) [Example 106, 6-Fluoro-1-[1-(5-fluoro-indan-2-ylmethyl)-piperidin-4-yl]-5-methyl-1H-benzoimidazole], the IC50 is 20 to 200 nM under setting [1] and 194 nM (read-out: IC50 (nM), selected in vitro MCH-R binding data).

In the case of `CO[C@@H]1CN(CC2Cc3ccccc3C2)CC[C@H]1n1c(C(C)(C)O)nc2cc(C)ccc21` [Example 107, 2-[1-((3R,4R)-1-Indan-2-ylmethyl-3-methoxy-piperidin-4-yl)-5-methyl-1H-benzoimidazol-2-yl]-propan-2-ol], under setting [1], the IC50 was 20 to 200 nM. Consider `CO[C@@H]1CN(C[C@H]2Cc3ccc(F)cc3C2)CC[C@H]1n1c(C(C)(C)O)nc2cc(C)ccc21` [Example 108, 2-{1-[(3R,4R)-1-((S)-5-Fluoro-indan-2-ylmethyl)-3-methoxy-piperidin-4-yl]-5-methyl-1H-benzoimidazol-2-yl}-propan-2-ol], for which the IC50 under setting [1] lay in the range of 20 to 200 nM.

For the compound `CO[C@@H]1CN(C[C@@H]2Cc3ccc(F)cc3C2)CC[C@H]1n1c(C(C)(C)O)nc2cc(C)ccc21` [Example 109, 2-{1-[(3R,4R)-1-((R)-5-Fluoro-indan-2-ylmethyl)-3-methoxy-piperidin-4-yl]-5-methyl-1H-benzoimidazol-2-yl}-propan-2-ol], the IC50 under setting [1] was 20 to 200 nM. Regarding `CO[C@@H]1CN(CC2Cc3ccc(C)cc3C2)CC[C@H]1n1c(C(C)(C)O)nc2cc(F)ccc21` (stereo partly drawn) [Example 110, 2-{5-Fluoro-1-[(3R,4R)-3-methoxy-1-(5-methyl-indan-2-ylmethyl)-piperidin-4-yl]-1H-benzoimidazol-2-yl}-propan-2-ol], the IC50 under setting [1] lay within 20 to 200 nM.

In the case of `CO[C@@H]1CN(C[C@H]2Cc3ccc(Br)cc3C2)CC[C@H]1n1c(C(C)(C)O)nc2cc(F)ccc21` [Example 111, 2-{1-[(3R,4R)-1-((S)-5-Bromo-indan-2-ylmethyl)-3-methoxy-piperidin-4-yl]-5-fluoro-1H-benzoimidazol-2-yl}-propan-2-ol], under setting [1], the IC50 fell in the range of 20 to 200 nM. Still for that read-out and setting: then `CO[C@@H]1CN(C[C@H]2Cc3ccc(Cl)cc3C2)CC[C@H]1n1c(C(C)(C)O)nc2cc(C)ccc21` [Example 112, 2-{1-[(3R,4R)-1-((S)-5-Chloro-indan-2-ylmethyl)-3-methoxy-piperidin-4-yl]-5-methyl-1H-benzoimidazol-2-yl}-propan-2-ol], with 20 to 200 nM.

A word on the IC50: it is the point on the concentration scale where inhibition reaches its midpoint.
